{"source": "patent US20050137222A1", "about": "“Treatment of insomnia in human patients” (H. Lundbeck A/S, priority 2003, published 2005)", "key": {"healthy human subjects": {"tested_on": "healthy human subjects", "conditions": "cited from earlier work"}, "[1]": {"tested_on": "adult subjects with primary insomnia", "experiment": "Polysomnograph (PSG) study in adult subjects with primary insomnia", "assay_type": "in vivo, human", "experimental": "(§1) Effect is confirmed for short-term treatment in studies using acute treatment in healthy subjects exposed to a phase advance model. Assessment of effect on insomnia during intermediate term treatment duration is performed in primary insomnia subjects using treatment duration up to 4 weeks. Long term or chronic treatment is assessed in 12 month safety studies. Subject populations include primary insomnia subjects with age range 18-65 yrs (adults) and 65 and above (elderly).\n(§2) Sleep maintenance is measured by either of parameters wakefulness after sleep onset, number of awakenings after sleep onset or total sleep time. […] In these studies, the effect was also confirmed by the subjects own feelings of the sleep initiation. Based both on PSG and on subjective diary recording, gaboxadol doses of 5 to 15 mg are highly preferred to achieve effect in adults and elderly (gaboxadol was administered from ½ hour before bedtime up to immediately before going to bed)."}, "[2]": {"tested_on": "adult (18-65 yrs) primary insomnia subjects", "experiment": "3 week placebo controlled parallel group outpatient study of daytime performance (VAS, Sheehan disability scale)", "assay_type": "in vivo, human", "conditions": "doses 5, 10 and 15 mg, about ½ hour before bedtime; 3 weeks; effect more pronounced during week 2 and 3", "experimental": "The daytime performance (used interchangeably with daytime function) in adult (18-65 yrs) primary insomnia subjects (Diagnostic and Statistical Manual of Mental Disorders—Fourth Edition, […]) has been assessed in a 3 week placebo controlled parallel group, outpatient study. The performance was measured with standardized questions using a 100 point Visual Analogue Scale (VAS). The questions asked for subjects to report on their daytime ability to function, tiredness, energy and relaxedness. Subject responses were recorded in a diary in the evening on the day after each treatment night (gaboxadol was administered about ½ hour before bedtime). Moreover, daytime function was recorded once weekly using the Sheehan disability scale (Sheehan et al., 1996, “The measurement of disability,” International Clinical Psychopharmacology 11 (suppl. 3), 89-95)."}, "animals": {"tested_on": "animals", "conditions": "cited from earlier work"}, "human subjects": {"tested_on": "human subjects", "experiment": "EEG slow wave sleep and spectral analysis in the clinical studies", "assay_type": "in vivo", "conditions": "similar effect range as for slow wave sleep", "from_the_text": "Moreover, gaboxadol induced a dose-dependent increase in duration of slow wave sleep (SWS), that is, stages 3 and 4, which is considered the deepest stage of sleep. The effect ranged between +15 and 46% compared to placebo."}, "[3]": {"tested_on": "healthy subjects exposed to a phase advance model", "experiment": "Phase advance model in healthy subjects (PSG and subjective recording)", "assay_type": "in vivo, human", "experimental": "as §1, §2"}}}
{"smiles": "Oc1noc2c1CCNC2", "note": "[gaboxadol, 4,5,6,7-tetrahydroisoxazolo(5,4-c)pyridin-3-ol]", "values": [{"measurement": "deep sleep", "setting": "healthy human subjects", "result": "promote deep sleep"}, {"measurement": "influence on REM sleep", "setting": "healthy human subjects", "result": "no disrupting influence on REM sleep"}, {"measurement": "sleep maintenance", "setting": "healthy human subjects", "result": "increase sleep maintenance"}, {"measurement": "sleep maintenance as measured by polysomnograph (wakefulness after sleep onset, number of awakenings after sleep onset or total sleep time)", "setting": "[1]; adult subjects with primary insomnia, oral, from ½ hour before bedtime up to bedtime", "result": "improves sleep maintenance"}, {"measurement": "sleep initiation", "setting": "[1]; primary insomnia subjects, confirmed by subjects' own feelings", "result": "facilitated sleep initiation"}, {"measurement": "daytime performance (weekly means of VAS questions and Sheehan disability scale)", "setting": "[2]", "result": "significantly improve daytime performance"}, {"measurement": "nonREMS amount and nonREMS/REMS episode duration", "setting": "animals", "result": "increasing total amount of nonREMS and lengthening the duration of the nonREMS and REMS episodes"}, {"measurement": "slow wave activity in EEG spectral analysis", "setting": "human subjects", "result": "increase of slow wave activity"}, {"measurement": "sleep maintenance as measured by polysomnograph (wakefulness after sleep onset, number of awakenings after sleep onset or total sleep time)", "setting": "[3]; healthy subjects, phase advance model", "result": "improves sleep maintenance"}, {"measurement": "subjects' own perception of the sleep maintenance effect", "setting": "[3]; healthy subjects, phase advance model, subjective", "result": "decreased wakefulness"}, {"measurement": "lowest dose at which the sleep maintenance effect was observed", "setting": "[3]; oral, study not clearly specified in the text", "result": "about 5 mg per day"}, {"measurement": "sleep initiation", "setting": "[3]; subjects in a phase advance model, confirmed by subjects' own feelings", "result": "facilitated sleep initiation"}]}
